Test results from PubChem BioAssay AID1963959 (Molecular Pharmacology Branch, DTP, NCI, 2024).
pIC50: −log10 of the molar value. Several values for one entry are separate records, joined by “and”; a condition that tells them apart may be missing. Equal entries are not always repeated.

System: T-47D spheroids with HUVEC/MSC, viability
Test: Anticancer human tumor T-47D cell line growth inhibition [PI3K];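 note: spheroids exposed to agents for seven days before reading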;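 for viability, T/C: percent of DMSO vehicle control luminescence so 100% = untreated growth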
Settings: for viability, T/C: stronger effect = lower value
In short: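 Tumor cells grown as multi-cell spheroids with HUVEC endothelial cells and MSC fibroblast-like stroma were treated with targeted agents combined with inavolisib, alpelisib, duvelisib or copanlisib. Doses fell in half-log steps from near clinical Cmax, else from 10 microM. Viability was measured.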

[1] = curve of first compound, second compound 0.0316 µM
[2] = curve of first compound, second compound 0.1 µM
[3] = curve of first compound, second compound 0.316 µM
[4] = curve of first compound, second compound 1 µM
[5] = curve of first compound, second compound 0.00316 µM
[6] = curve of first compound, second compound 0.01 µM
[7] = second compound 0.00316 µM, first compound 0.0316 µM
[8] = second compound 0.00316 µM, first compound 0.1 µM
[9] = second compound 0.00316 µM, first compound 0.316 µM
[10] = second compound 0.00316 µM, first compound 1 µM
[11] = second compound 0.00316 µM, first compound 3.16 µM
[12] = second compound 0.00316 µM, first compound 10 µM
[13] = second compound 0.01 µM, first compound 0.0316 µM
[14] = second compound 0.01 µM, first compound 0.1 µM
[15] = second compound 0.01 µM, first compound 0.316 µM
[16] = second compound 0.01 µM, first compound 1 µM
[17] = second compound 0.01 µM, first compound 3.16 µM
[18] = second compound 0.01 µM, first compound 10 µM
[19] = second compound 0.0316 µM, first compound 0.0316 µM
[20] = second compound 0.0316 µM, first compound 0.1 µM
[21] = second compound 0.0316 µM, first compound 0.316 µM
[22] = second compound 0.0316 µM, first compound 1 µM
[23] = second compound 0.0316 µM, first compound 3.16 µM
[24] = second compound 0.0316 µM, first compound 10 µM
[25] = second compound 0.1 µM, first compound 0.0316 µM
[26] = second compound 0.1 µM, first compound 0.1 µM
[27] = second compound 0.1 µM, first compound 0.316 µM
[28] = second compound 0.1 µM, first compound 1 µM
[29] = second compound 0.1 µM, first compound 3.16 µM
[30] = second compound 0.1 µM, first compound 10 µM
[31] = second compound 0.316 µM, first compound 0.0316 µM
[32] = second compound 0.316 µM, first compound 0.1 µM
[33] = second compound 0.316 µM, first compound 0.316 µM
[34] = second compound 0.316 µM, first compound 1 µM
[35] = second compound 0.316 µM, first compound 3.16 µM
[36] = second compound 0.316 µM, first compound 10 µM
[37] = second compound 1 µM, first compound 0.0316 µM
[38] = second compound 1 µM, first compound 0.1 µM
[39] = second compound 1 µM, first compound 0.316 µM
[40] = second compound 1 µM, first compound 1 µM
[41] = second compound 1 µM, first compound 3.16 µM
[42] = second compound 1 µM, first compound 10 µM

Cn1cnc2c(F)c(Nc3ccc(Br)cc3Cl)c(C(=O)NOCCO)cc21 + CC(Nc1ncnc2nc[nH]c12)c1cc2cccc(Cl)c2c(=O)n1-c1ccccc1
pIC50 [1]: < 5.52
pIC50 [2]: < 5.52
pIC50 [3]: < 5.52
pIC50 [4]: < 5.52
pIC50 (curve of first compound, second compound 3.16 µM): < 5.52
pIC50 (curve of first compound, second compound 10 µM): < 5.52
viability, T/C (second compound 0.0316 µM, first compound 0.00949 µM): 104%
viability, T/C (second compound 0.0316 µM, first compound 0.03 µM): 93.4%
viability, T/C (second compound 0.0316 µM, first compound 0.0949 µM): 100%
viability, T/C (second compound 0.0316 µM, first compound 0.3 µM): 81%
viability, T/C (second compound 0.0316 µM, first compound 0.949 µM): 84.2%
viability, T/C (second compound 0.0316 µM, first compound 3 µM): 77.1%
viability, T/C (second compound 0.1 µM, first compound 0.00949 µM): 94.6%
viability, T/C (second compound 0.1 µM, first compound 0.03 µM): 86%
viability, T/C (second compound 0.1 µM, first compound 0.0949 µM): 87.8%
viability, T/C (second compound 0.1 µM, first compound 0.3 µM): 83.8%
viability, T/C (second compound 0.1 µM, first compound 0.949 µM): 93.2%
viability, T/C (second compound 0.1 µM, first compound 3 µM): 102%
viability, T/C (second compound 0.316 µM, first compound 0.00949 µM): 73.4%
viability, T/C (second compound 0.316 µM, first compound 0.03 µM): 83.2%
viability, T/C (second compound 0.316 µM, first compound 0.0949 µM): 79.7%
viability, T/C (second compound 0.316 µM, first compound 0.3 µM): 83.9%
viability, T/C (second compound 0.316 µM, first compound 0.949 µM): 82%
viability, T/C (second compound 0.316 µM, first compound 3 µM): 75.2%
viability, T/C (second compound 1 µM, first compound 0.00949 µM): 96.9%
viability, T/C (second compound 1 µM, first compound 0.03 µM): 104%
viability, T/C (second compound 1 µM, first compound 0.0949 µM): 86.1%
viability, T/C (second compound 1 µM, first compound 0.3 µM): 94.8%
viability, T/C (second compound 1 µM, first compound 0.949 µM): 75%
viability, T/C (second compound 1 µM, first compound 3 µM): 79.3%
viability, T/C (second compound 3.16 µM, first compound 0.00949 µM): 79.3%
viability, T/C (second compound 3.16 µM, first compound 0.03 µM): 94.9%
viability, T/C (second compound 3.16 µM, first compound 0.0949 µM): 85.2%
viability, T/C (second compound 3.16 µM, first compound 0.3 µM): 95.5%
viability, T/C (second compound 3.16 µM, first compound 0.949 µM): 80.2%
viability, T/C (second compound 3.16 µM, first compound 3 µM): 82.5%
viability, T/C (second compound 10 µM, first compound 0.00949 µM): 78.3%
viability, T/C (second compound 10 µM, first compound 0.03 µM): 82.2%
viability, T/C (second compound 10 µM, first compound 0.0949 µM): 71.3%
viability, T/C (second compound 10 µM, first compound 0.3 µM): 69.3%
viability, T/C (second compound 10 µM, first compound 0.949 µM): 80.9%
viability, T/C (second compound 10 µM, first compound 3 µM): 79.9%

Cn1ncc(Cl)c1-c1cc(C(=O)NC(CN)Cc2cccc(F)c2)sc1Cl (stereo unspecified) + CC(Nc1ccc2c(c1)OCCn1cc(N3C(=O)OCC3C(F)F)nc1-2)C(N)=O
pIC50 [5]: < 5.00
pIC50 [6]: < 5.00
pIC50 [1]: < 5.00
pIC50 [2]: < 5.00
pIC50 [3]: < 5.00
pIC50 [4]: > 7.50
viability, T/C [7]: 91.4%
viability, T/C [8]: 86.4%
viability, T/C [9]: 80.5%
viability, T/C [10]: 81.8%
viability, T/C [11]: 73.7%
viability, T/C [12]: 81.5%
viability, T/C [13]: 91.2%
viability, T/C [14]: 89.6%
viability, T/C [15]: 82.9%
viability, T/C [16]: 70.2%
viability, T/C [17]: 65.5%
viability, T/C [18]: 87.9%
viability, T/C [19]: 82.1%
viability, T/C [20]: 82.7%
viability, T/C [21]: 68.1%
viability, T/C [22]: 67.8%
viability, T/C [23]: 59.5%
viability, T/C [24]: 90.9%
viability, T/C [25]: 95.7%
viability, T/C [26]: 92.7%
viability, T/C [27]: 71.8%
viability, T/C [28]: 55.6%
viability, T/C [29]: 58.9%
viability, T/C [30]: 75%
viability, T/C [31]: 71.4%
viability, T/C [32]: 59.7%
viability, T/C [33]: 60.8%
viability, T/C [34]: 49.7%
viability, T/C [35]: 47.2%
viability, T/C [36]: 64.6%
viability, T/C [37]: 50.8%
viability, T/C [38]: 49.5%
viability, T/C [39]: 49.8%
viability, T/C [40]: 45.5%
viability, T/C [41]: 50.3%
viability, T/C [42]: 59.3%

CC(C)n1nc(-c2ccc3oc(N)nc3c2)c2c(N)ncnc21
viability, T/C (compound 0.000316 µM): 104% [middle of 4 runs]
viability, T/C (compound 0.001 µM): 96.4% [middle of 4 runs]
viability, T/C (compound 0.00316 µM): 97.8% [middle of 4 runs]
viability, T/C (compound 0.0316 µM): 87.3% [middle of 4 runs]
viability, T/C (compound 0.1 µM): 35.7% [middle of 4 runs]
IC50 (curve of compound): 70.6 nM [middle of 4 runs]

CC1(C)CCC(CN2CCN(c3ccc(C(=O)NS(=O)(=O)c4ccc(NCC5CCOCC5)c([N+](=O)[O-])c4)c(Oc4cnc5[nH]ccc5c4)c3)CC2)=C(c2ccc(Cl)cc2)C1
viability, T/C (compound 0.0316 µM): 93.2% [middle of 4 runs]
viability, T/C (compound 0.1 µM): 99% [middle of 4 runs]
viability, T/C (compound 0.316 µM): 99% and 91.9% and 111% (2×)
pIC50 (curve of compound): < 5.00

Cn1ncc(Cl)c1-c1cc(C(=O)NC(CN)Cc2cccc(F)c2)sc1Cl (stereo unspecified) + COc1c(OCCCN2CCOCC2)ccc2c3n(c(=NC(=O)c4cnc(N)nc4)nc12)CCN3
pIC50 [5]: < 5.00
pIC50 [6]: < 5.00
pIC50 [1]: < 5.00
pIC50 [2]: > 7.50
pIC50 [3]: > 7.50
pIC50 [4]: > 7.50
viability, T/C [7]: 105%
viability, T/C [8]: 102%
viability, T/C [9]: 82.3%
viability, T/C [10]: 77.4%
viability, T/C [11]: 66.2%
viability, T/C [12]: 77.7%
viability, T/C [13]: 108%
viability, T/C [14]: 99.8%
viability, T/C [15]: 80.5%
viability, T/C [16]: 70.3%
viability, T/C [17]: 70%
viability, T/C [18]: 77.7%
viability, T/C [19]: 94.4%
viability, T/C [20]: 70.6%
viability, T/C [21]: 61.5%
viability, T/C [22]: 65%
viability, T/C [23]: 65.1%
viability, T/C [24]: 73.2%
viability, T/C [25]: 48.8%
viability, T/C [26]: 46.5%
viability, T/C [27]: 39.4%
viability, T/C [28]: 39.2%
viability, T/C [29]: 55.7%
viability, T/C [30]: 48.7%
viability, T/C [31]: 17.2%
viability, T/C [32]: 20.4%
viability, T/C [33]: 19.1%
viability, T/C [34]: 19.6%
viability, T/C [35]: 24.3%
viability, T/C [36]: 39.5%
viability, T/C [37]: 7.39%
viability, T/C [38]: 7.86%
viability, T/C [39]: 6.72%
viability, T/C [40]: 6.88%
viability, T/C [41]: 15.6%
viability, T/C [42]: 10.9%
